Source: patent US20150223465A1, “COMPOSITION CONTAINING 3-CYCLOPROPYL-1-ENYL-PROPANOIC ACID SALTS AND A CARRIER” (Yissum Research Development Company of the Hebrew …, priority 2012, published 2015)

Columns and labels:
carnation flowers = assay: Loading 14-18 h with CPAS, 0-72 h in tap water, then ethylene for 24 h; vase life assessment; assay type: in vivo, carnation (Dianthus caryophyllus); settings: for protection from ethylene-induced senescence: loading 14-18 h, 1.0 ppm ethylene 24 h
Protocol: Carnation flower stems were cut under tap water to the desired lengths (36 and 55 cm). Four flowers per treatment, in groups of two flowers each, were loaded for 14-18 hours in 20 mL of treatment solutions containing 0, 30, 60 and 120 mg L^−1 CPAS in either an aqueous solution containing sodium carbonate/sodium bicarbonate buffer (40 mM, pH=9.5) and 0.025% Tween 20 or an aqueous solution containing K-Phosphate Buffer (40 mM, pH=7.8) and 0.025% Tween 20. At the end of CPAS loading (14-18 hours), groups of treated flowers were transferred into tap water for 0, 24, 48 and 72 hours. The cut flowers were then exposed to 1.0 ppm ethylene for 24 hours. At the end of the ethylene treatment, the flowers were ventilated and left under controlled conditions for additional 11, 10, 9, 8 days, respectively, for vase life assessment. Pictures of were taken 13 days after beginning of the experiment. It is noted that the carnation flowers tested were highly sensitive to ethylene, and therefore exposure to ethylene at an amount of 1.0 ppm was effected.

cut carnation flowers = assay: Water uptake of treated cut flowers; settings: 60 or 120 ppm CPAS in 20 mM NaHCO3 pH 8.2; 36 cm stems; 48 hours after termination of ethylene exposure (2 ppm, 24 h)
Protocol: Water Uptake: The uptake of water by cut flowers was measured after CPAS loading and after ethylene exposure (exposure to 2 ppm ethylene for 24 hours, unless otherwise indicated). The aqueous treatment solution was maintained at 20 mL by addition of tap water after each treatment.
Aqueous treatment solutions of CPAS were prepared and tested, each of which contained 0, 60 or 120 ppm of CPAS in 20 mM NaHCO3 (pH 8.2). Cut flowers (36 cm long stems) were treated according to the treatment procedure described above.

## O=C([O-])CCC1=CC1.[Na+] [CPAS, 3-cyclopropyl-1-enyl-propanoic acid salt]
Carnation flowers; CPAS 60 and 120 mg L^−1 in K-Phosphate buffer 40 mM pH 7.8, 0.025% Tween 20
  protection from ethylene-induced senescence: almost no protection
Carnation flowers; CPAS 60 and 120 mg L^−1 in sodium carbonate/sodium bicarbonate buffer 40 mM pH 9.5, 0.025% Tween 20
  protection from ethylene-induced senescence: significantly protected
Carnation flowers; CPAS at the two higher concentrations in Na-Carbonate buffer
  protection with ethylene treatment 2 and 3 days after pretreatment: more protected as the incubation time increases
Carnation flowers; ethylene exposure 3 days after pretreatment with CPAS
  resistance to ethylene-induced flower senescence after pretreatment: resistant
Cut carnation flowers
  water uptake of flowers: increased water uptake
